Results: publication PMC6467784 (Journal of medicinal chemistry, 2019)
Where two headings read alike, the source gives them in different places.

Experiments:
hA2BAR = target: T1, hA2BAR (Homo sapiens, UniProt P29275); assay: hA2BAR radioligand binding using [3H]54
T1 sequence (P29275 1-332): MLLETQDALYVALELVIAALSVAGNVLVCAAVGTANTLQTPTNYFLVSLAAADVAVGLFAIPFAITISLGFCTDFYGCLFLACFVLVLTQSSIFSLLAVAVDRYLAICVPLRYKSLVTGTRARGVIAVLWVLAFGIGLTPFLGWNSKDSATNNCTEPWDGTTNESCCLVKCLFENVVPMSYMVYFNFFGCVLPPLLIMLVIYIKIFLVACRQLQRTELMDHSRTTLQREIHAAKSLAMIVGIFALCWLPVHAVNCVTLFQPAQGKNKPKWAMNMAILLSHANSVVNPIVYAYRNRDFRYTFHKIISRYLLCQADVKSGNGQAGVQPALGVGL

wild-type C57BL/6J mice [1] = assay: Body temperature and locomotor activity by telemetry after ip. dosing; assay type: in vivo, mouse
A1AR, A3AR [2] = assay: Hypothermia in A1AR, A3AR and A1AR/A3AR deficient mice; assay type: in vivo, mouse; details: 3 mg/kg ip.
mice = assay: Hypothermia after intracerebroventricular infusion; assay type: in vivo, mouse
[3] = Pharmacokinetics in the male rat; assay type: in vivo; details: 3 mg/kg p.o.
[4] = Stability in simulated gastric fluid; assay type: in vitro ADME
[5] = Stability in simulated intestinal fluid; assay type: in vitro ADME
Human liver microsomes = assay type: in vitro ADME
Mouse liver microsomes = assay type: in vitro ADME
Rat liver microsomes = assay type: in vitro ADME
[6] = Stability in human plasma; assay type: in vitro ADME; details: human (h)
[7] = Stability in mouse plasma; assay type: in vitro ADME; details: mouse (m)
Stability in rat plasma = assay type: in vitro ADME
1A2 CYP isozyme = 1A2 CYP isozyme (Homo sapiens, UniProt P05177); assay: CYP 1A2 inhibition; assay type: in vitro ADME
hCYP P450 2C9 = hCYP P450 2C9 (Homo sapiens, UniProt P11712); assay: CYP 2C9 inhibition; assay type: in vitro ADME
2C19 CYP isozyme = 2C19 CYP isozyme (Homo sapiens, UniProt P33261); assay: CYP 2C19 inhibition; assay type: in vitro ADME
2C19 CYP isozyme, sequence (P33261 whole entry): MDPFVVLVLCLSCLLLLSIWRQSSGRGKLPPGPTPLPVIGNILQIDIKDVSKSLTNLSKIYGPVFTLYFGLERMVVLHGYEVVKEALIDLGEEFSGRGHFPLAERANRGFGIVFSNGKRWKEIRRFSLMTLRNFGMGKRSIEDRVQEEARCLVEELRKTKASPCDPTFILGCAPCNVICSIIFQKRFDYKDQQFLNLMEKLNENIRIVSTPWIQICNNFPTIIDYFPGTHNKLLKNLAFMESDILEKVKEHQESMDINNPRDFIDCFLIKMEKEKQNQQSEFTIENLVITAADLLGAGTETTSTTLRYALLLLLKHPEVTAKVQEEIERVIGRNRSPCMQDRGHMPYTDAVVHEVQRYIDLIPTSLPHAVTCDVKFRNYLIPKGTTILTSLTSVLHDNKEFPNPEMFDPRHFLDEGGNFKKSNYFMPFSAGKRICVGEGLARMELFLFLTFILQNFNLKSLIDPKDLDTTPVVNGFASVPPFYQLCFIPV

hCYP P450 2D6 = hCYP P450 2D6 (Homo sapiens, UniProt P10635); assay: CYP 2D6 inhibition; assay type: in vitro ADME
hCYP P450 2D6, sequence (P10635 whole entry): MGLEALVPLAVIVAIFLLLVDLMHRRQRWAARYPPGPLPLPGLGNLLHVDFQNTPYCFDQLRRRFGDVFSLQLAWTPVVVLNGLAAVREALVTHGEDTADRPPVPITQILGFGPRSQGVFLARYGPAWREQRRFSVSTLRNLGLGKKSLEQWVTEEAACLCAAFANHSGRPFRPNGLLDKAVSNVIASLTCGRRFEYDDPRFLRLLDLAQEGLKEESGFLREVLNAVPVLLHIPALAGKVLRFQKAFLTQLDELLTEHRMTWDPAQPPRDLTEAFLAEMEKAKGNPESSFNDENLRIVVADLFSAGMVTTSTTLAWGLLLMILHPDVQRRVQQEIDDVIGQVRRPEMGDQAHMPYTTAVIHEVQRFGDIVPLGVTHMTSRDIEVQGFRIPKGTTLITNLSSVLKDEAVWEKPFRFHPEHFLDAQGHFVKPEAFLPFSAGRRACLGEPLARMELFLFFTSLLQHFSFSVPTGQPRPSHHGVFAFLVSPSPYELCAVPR

hCYP P450 3A4 = hCYP P450 3A4 (Homo sapiens, UniProt P08684); assay: CYP 3A4 inhibition; assay type: in vitro ADME
hCYP P450 3A4, sequence (P08684 whole entry): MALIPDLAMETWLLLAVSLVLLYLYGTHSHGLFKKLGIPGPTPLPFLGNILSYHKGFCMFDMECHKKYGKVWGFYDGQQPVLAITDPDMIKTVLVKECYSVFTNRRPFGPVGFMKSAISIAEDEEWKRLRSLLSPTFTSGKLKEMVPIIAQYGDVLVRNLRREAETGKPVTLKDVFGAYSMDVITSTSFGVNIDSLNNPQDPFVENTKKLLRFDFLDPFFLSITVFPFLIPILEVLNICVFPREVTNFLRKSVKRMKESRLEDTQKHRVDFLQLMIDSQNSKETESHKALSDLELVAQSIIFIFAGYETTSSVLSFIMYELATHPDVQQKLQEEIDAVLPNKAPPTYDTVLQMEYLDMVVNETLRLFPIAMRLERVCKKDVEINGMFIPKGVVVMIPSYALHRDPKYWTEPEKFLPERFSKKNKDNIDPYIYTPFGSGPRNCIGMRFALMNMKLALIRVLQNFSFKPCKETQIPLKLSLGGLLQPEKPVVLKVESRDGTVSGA

CACO-2 cells = assay: CACO-2 permeability and efflux; assay type: in vitro ADME
HEP-G2 hepatocytes = assay: Toxicity in HEP-G2 hepatocytes; assay type: cell-based
[8] = test system: off-target receptors and transporters; assay: PDSP off-target screen; assay type: binding, human
rA1AR = rA1AR (Rattus norvegicus, UniProt P25099); details: read-out: A1AR Ki; rat (r); ref [17],[23],[30],[33],[34],[43],[45]; cited from earlier work
rA1AR, sequence (P25099 whole entry): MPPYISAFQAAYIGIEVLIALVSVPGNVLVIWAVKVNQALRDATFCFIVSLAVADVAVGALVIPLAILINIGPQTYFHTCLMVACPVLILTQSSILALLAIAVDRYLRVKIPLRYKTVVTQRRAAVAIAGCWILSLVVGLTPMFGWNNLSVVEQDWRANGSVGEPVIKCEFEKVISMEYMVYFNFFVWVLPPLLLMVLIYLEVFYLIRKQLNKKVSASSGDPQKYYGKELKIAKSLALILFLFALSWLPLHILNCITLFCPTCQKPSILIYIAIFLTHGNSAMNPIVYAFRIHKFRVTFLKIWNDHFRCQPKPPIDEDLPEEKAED

σ1 = σ1 (Homo sapiens, UniProt Q99720); assay: PDSP off-target binding, σ1
σ1, sequence (Q99720 whole entry): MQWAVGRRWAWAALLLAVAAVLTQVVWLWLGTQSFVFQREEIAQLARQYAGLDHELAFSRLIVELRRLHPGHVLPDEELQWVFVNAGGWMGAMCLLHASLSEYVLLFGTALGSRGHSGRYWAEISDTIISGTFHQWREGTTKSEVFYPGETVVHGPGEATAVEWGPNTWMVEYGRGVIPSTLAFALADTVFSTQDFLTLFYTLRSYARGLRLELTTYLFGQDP

hA1AR = target: T2, hA1AR (Homo sapiens, UniProt P30542); details: read-out: A1AR Ki; human (h); ref [1],[17],[23],[30],[32]-[36],[43]-[45]; cited from earlier work
T2 sequence (P30542 1-326): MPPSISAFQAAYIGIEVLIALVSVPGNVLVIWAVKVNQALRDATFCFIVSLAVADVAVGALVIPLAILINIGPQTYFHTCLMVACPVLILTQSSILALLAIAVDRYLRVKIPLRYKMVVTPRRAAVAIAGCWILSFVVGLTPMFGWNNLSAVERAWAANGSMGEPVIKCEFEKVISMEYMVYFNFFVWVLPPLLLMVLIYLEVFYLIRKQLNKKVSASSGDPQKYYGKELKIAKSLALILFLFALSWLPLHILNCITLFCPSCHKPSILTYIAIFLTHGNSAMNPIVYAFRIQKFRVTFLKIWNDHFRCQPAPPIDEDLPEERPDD

hA2AAR = hA2AAR (Homo sapiens, UniProt P29274); details: read-out: A2AAR Ki; human (h); ref [1],[17],[23],[30],[32]-[35],[43],[45]; cited from earlier work
hA2AAR, sequence (P29274 whole entry): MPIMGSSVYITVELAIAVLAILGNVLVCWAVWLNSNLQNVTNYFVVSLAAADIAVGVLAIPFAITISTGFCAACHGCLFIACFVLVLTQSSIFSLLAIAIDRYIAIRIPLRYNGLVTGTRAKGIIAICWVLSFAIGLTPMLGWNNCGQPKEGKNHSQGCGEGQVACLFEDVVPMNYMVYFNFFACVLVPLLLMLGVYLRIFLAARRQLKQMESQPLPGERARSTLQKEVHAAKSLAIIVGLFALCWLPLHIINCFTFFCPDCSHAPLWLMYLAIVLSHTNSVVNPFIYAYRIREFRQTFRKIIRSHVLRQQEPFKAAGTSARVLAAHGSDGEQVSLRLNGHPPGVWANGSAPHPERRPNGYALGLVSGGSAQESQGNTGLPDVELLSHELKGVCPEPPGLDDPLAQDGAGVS

rA2AAR = details: read-out: A2AAR Ki; rat (r); ref [17],[23],[30],[33],[34],[43],[45]; cited from earlier work
hA3AR = hA3AR (Homo sapiens, UniProt P0DMS8); details: read-out: A3AR Ki; human (h); ref [1],[17],[23],[30],[32]-[35],[43],[45]; cited from earlier work
hA3AR, sequence (P0DMS8 whole entry): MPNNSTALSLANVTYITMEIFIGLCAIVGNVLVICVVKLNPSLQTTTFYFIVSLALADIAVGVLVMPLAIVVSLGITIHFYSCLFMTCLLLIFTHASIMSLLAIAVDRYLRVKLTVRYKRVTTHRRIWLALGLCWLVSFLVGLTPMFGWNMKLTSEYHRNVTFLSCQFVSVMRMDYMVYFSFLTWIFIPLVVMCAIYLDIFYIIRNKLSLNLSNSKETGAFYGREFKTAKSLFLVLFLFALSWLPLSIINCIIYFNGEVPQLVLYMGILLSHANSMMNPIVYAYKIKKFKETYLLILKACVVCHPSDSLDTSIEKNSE

DAT = DAT (Homo sapiens, UniProt Q01959); assay: PDSP off-target binding, DAT; details: read-out: Off-target Ki, DAT
DAT, sequence (Q01959 whole entry): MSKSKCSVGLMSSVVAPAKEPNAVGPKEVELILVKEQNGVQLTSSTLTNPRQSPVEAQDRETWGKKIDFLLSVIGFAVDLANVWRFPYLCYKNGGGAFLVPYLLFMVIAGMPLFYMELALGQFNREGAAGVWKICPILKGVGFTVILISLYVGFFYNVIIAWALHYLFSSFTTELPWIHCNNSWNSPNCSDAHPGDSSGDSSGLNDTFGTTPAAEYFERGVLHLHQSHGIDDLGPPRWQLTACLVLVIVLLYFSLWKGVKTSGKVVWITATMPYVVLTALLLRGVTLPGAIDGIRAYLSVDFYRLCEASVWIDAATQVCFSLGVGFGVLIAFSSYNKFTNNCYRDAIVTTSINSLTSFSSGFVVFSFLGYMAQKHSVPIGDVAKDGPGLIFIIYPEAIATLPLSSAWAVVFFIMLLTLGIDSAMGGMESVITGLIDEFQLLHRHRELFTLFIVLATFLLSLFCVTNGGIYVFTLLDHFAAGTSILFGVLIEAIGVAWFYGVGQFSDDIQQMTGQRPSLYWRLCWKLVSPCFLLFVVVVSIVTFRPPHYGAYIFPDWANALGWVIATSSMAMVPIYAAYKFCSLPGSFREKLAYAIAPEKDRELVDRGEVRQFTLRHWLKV

5HT2C = 5HT2C (Homo sapiens, UniProt P28335); assay: PDSP off-target binding, 5HT2C; details: read-out: Off-target Ki, 5HT2C
5HT2C, sequence (P28335 33-458): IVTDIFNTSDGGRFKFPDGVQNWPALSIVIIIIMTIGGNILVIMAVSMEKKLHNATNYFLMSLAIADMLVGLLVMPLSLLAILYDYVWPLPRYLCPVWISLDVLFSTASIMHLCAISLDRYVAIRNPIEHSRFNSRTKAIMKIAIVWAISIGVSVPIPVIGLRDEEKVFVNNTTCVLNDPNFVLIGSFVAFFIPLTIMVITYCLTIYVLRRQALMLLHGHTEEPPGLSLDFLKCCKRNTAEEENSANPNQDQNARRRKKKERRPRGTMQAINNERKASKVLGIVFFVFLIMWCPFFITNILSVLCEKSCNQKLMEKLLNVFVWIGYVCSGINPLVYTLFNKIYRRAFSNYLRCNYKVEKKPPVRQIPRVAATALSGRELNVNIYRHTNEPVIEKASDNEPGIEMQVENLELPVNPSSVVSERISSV

mA1AR = target: T3, mA1AR (Mus musculus, UniProt Q60612); details: read-out: A1AR Ki; mouse (m); ref [17],[23],[30],[32]-[34],[36],[43]-[45]; cited from earlier work
T3 sequence (Q60612 1-326): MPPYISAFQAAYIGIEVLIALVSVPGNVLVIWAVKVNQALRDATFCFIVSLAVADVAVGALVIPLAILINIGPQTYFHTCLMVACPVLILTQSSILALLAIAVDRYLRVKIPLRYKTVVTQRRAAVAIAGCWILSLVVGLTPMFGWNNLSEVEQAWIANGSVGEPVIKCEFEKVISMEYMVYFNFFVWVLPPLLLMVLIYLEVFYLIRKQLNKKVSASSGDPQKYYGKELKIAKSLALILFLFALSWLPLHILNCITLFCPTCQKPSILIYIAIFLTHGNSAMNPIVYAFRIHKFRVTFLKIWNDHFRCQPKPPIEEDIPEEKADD

mA2AAR = mA2AAR (Mus musculus, UniProt Q60613); details: mouse (m); at 10 μM; ref [30],[33],[34],[43]; cited from earlier work
mA2AAR, sequence (Q60613 whole entry): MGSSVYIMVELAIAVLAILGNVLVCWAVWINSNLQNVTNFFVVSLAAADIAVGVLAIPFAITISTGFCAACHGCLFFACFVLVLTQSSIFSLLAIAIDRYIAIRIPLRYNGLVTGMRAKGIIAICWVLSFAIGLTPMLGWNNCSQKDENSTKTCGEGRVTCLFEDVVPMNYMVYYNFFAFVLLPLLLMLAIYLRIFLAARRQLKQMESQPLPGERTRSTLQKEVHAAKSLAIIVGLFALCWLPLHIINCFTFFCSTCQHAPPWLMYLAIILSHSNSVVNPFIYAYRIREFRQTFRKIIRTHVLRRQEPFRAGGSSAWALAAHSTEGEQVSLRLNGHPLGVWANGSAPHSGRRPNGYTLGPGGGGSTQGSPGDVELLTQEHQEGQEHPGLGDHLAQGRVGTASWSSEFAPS

mA3AR = mA3AR (Mus musculus, UniProt Q61618); details: read-out: A3AR Ki; mouse (m); ref [17],[23],[30],[32]-[34],[43],[45]; cited from earlier work
mA3AR, sequence (Q61618 whole entry): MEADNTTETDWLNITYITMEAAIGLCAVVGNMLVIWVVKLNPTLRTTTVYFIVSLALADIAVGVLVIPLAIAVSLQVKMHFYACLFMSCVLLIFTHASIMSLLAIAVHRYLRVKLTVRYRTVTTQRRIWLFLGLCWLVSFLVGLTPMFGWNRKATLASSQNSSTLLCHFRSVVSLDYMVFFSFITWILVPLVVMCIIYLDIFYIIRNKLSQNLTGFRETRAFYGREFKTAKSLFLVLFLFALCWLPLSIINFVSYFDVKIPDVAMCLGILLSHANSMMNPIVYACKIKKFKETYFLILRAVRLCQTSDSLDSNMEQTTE

GPCR assays = assay: Broad GPCR screening; assay type: cell-based; details: at 10 μM; DiscoverX
403 kinases = assay: Kinase screen; assay type: binding; details: at 10 μM; among 403 kinases
[9] = Pharmacokinetics in male cynomolgus monkeys; assay type: in vivo, cynomolgus monkey; details: one-day observation period
female rhesus monkeys = assay: Tolerability in female rhesus monkeys; assay type: in vivo, rhesus monkey; details: 1 or 3 mg/kg in a food treat; up to 4 h post-dosing
anesthetized rat = assay: Cardiovascular effects in the anesthetized rat; assay type: in vivo; details: 3 mg/kg, ip., preliminary
mouse = details: 60 mg/kg
wild-type C57BL/6J mice [10] = details: 3 mg/kg ip.; average from dosing to 60 min; ref [30]; cited from earlier work
A1AR, A3AR [11] = details: ref [30]; cited from earlier work

## OC[C@H]1O[C@@H](n2cnc3c(NC(C4CCC4)C4CCC4)ncnc32)[C@H](O)C1O (stereo in doubt) [Compound 9, (2R,3R,4R,5R)-2-(6-((Dicyclobutylmethyl)amino)-9H-purin-9-yl)-5-(hydroxymethyl)tetrahydrofuran-3,4-diol]
hA2BAR
  Ki: 8620 nM
wild-type C57BL/6J mice [1]; 3 mg/kg ip., average from dosing to 60 min, mean ±SD
  Tb: 33.0±0.7 °C
wild-type C57BL/6J mice [1]; ip., up to 3 or 10 mg/kg
  Effect on Tb in WT mice: produced hypothermia and hypoactivity
A1AR, A3AR [2]; A1AR KO, A3AR KO, double KO mice
  Receptor dependence of hypothermia: dependent on A1AR, without a contribution from A3AR
A1AR, A3AR [2]; WT vs AR-KO mice (Figure 2)
  ARs causing hypothermia: A1AR selective (Figure 2)
mice; 1.67 μg/mouse icv. (= […])
  Duration of hypothermia after icv. administration: ~ 10 h
  Effect on Tb after icv. administration: deep hypothermia
mice; 5 μg injected icv. (equivalent to […])
  Tb reached after icv. administration: ~ 24 °C
[3]
  maximal concentration, molar: 310 nM
[4]
  Stability in simulated gastric fluid: completely stable
[5]
  Stability in simulated intestinal fluid: completely stable
Human liver microsomes; human
  Clearance in liver microsomes: medium clearance
Mouse liver microsomes
  Clearance in liver microsomes: medium clearance
Rat liver microsomes
  Clearance in liver microsomes: medium clearance
[6]
  Stability in plasma: completely stable
[7]
  Stability in plasma: completely stable
Stability in rat plasma
  Stability in plasma: completely stable
1A2 CYP isozyme
  Inhibition of 1A2 CYP isozyme: no inhibition
hCYP P450 2C9
  Inhibition of 2C9 CYP isozyme: weak inhibition
2C19 CYP isozyme
  Inhibition of 2C19 CYP isozyme: no inhibition
hCYP P450 2D6
  Inhibition of 2D6 CYP isozyme: no inhibition
hCYP P450 3A4
  Inhibition of 3A4 CYP isozyme: no inhibition
CACO-2 cells
  Permeability in CACO-2 cells: high permeability
HEP-G2 hepatocytes
  Toxicity in HEP-G2 hepatocytes: nontoxic

## Nc1nc(Cl)nc2c1ncn2[C@H]1[C@H](O)[C@H](O)[C@]2(CO)C[C@H]12 [Compound 21]
[8]
  Off-target, receptor: interactions found: none
rA1AR
  Ki: 273 nM

## CNC(=O)[C@]12C[C@@H]1[C@@H](n1cnc3c(NC4CCCC4)nc(Cl)nc31)[C@H](O)[C@@H]2O [Compound 6]
σ1
  Ki: 1550 nM

## OC[C@H]1O[C@@H](n2cnc3c(NC(C4CC4)C4CC4)ncnc32)[C@H](O)[C@@H]1O [Compound 8]
[8]
  Off-target, receptor: interactions found: none
hA1AR
  Ki: 0.85 ± 0.27 nM
hA2AAR
  Ki: 1470 ± 380 nM
rA2AAR
  Ki: 1370 nM
hA3AR
  Ki: 41.3 ± 5.3 nM

## OCC12CC1C(n1cnc3c(NC(C4CC4)C4CC4)nc(Cl)nc31)C(O)C2O (centres unmarked) [Compound 23]
DAT
  Ki: 4750 nM
5HT2C
  Ki: 1850 nM
hA1AR
  Ki: 39 ± 17 nM
mA1AR
  Ki: 0.71 nM
hA2AAR
  Ki: 2200 nM
mA2AAR
  A2AAR % inhibition: 41±9%
hA3AR
  Ki: 1600 ± 210 nM
mA3AR
  Ki: 1030 nM

## O[C@@H]1[C@H](O)[C@@H]2C[C@@H]2[C@H]1n1cnc2c(NC(C3CC3)C3CC3)nc(Cl)nc21 [Compound 7]
GPCR assays
  Broad GPCR screening result: not promiscuous
403 kinases
  Hits in kinase screen: only two weak hits
[9]
  Clinical observations: no clinical observations
Female rhesus monkeys
  Adverse reaction after oral dosing: no adverse reaction
[5]
  Stability in simulated intestinal fluid: stable
Human liver microsomes
  Stability in human liver microsomes: stable
Anesthetized rat
  Effects on heart rate and blood pressure: modest effects on heart rate (slow onset of reduction) and blood pressure (a modest, transient rise)
mouse
  Lethality in the mouse: non-lethal
wild-type C57BL/6J mice [10]
  Tb: 33.4±1.7 °C
A1AR, A3AR [11]
  ARs causing hypothermia: A3AR >> A1AR[30]
